Read-outs that look alike come from different tables or passages of the source.
Experiments:
in vitro [1] = conditions: rat, microsomes, pH 7.4
in vitro [2] = conditions: PAMPA
OC43 Mpro = OC43 Mpro (Human coronavirus OC43 (HCoV-OC43), UniProt P0C6X6); format: biochemical
SARS-CoV-2 Mpro = SARS-CoV-2 Mpro (Severe acute respiratory syndrome coronavirus 2 (2019-nCoV) (SARS-CoV-2), UniProt P0DTD1); format: biochemical
in vitro [3] = conditions: human, microsomes, pH 7.4
MERS Mpro = MERS Mpro (Middle East respiratory syndrome-related coronavirus (isolate United Kingdom/H123990006/2012) (MERS-CoV) (Betacoronavirus England 1), UniProt K9N7C7); assay: biochemical
229E Mpro = 229E Mpro (Human coronavirus 229E (HCoV-229E), UniProt P0C6X1); format: biochemical
SARS-CoV-1 Mpro = SARS-CoV-1 Mpro (Severe acute respiratory syndrome coronavirus (SARS-CoV), UniProt P0C6X7); format: biochemical
[4] = test system: SARS-CoV-2 (strain USA-WA1/2020); assay: microbe, parasite or virus in culture; format: cell-based
229E virus = assay: organism not typed; format: cell-based; conditions: Huh-7, read-out: Antiviral 229E EC50 (μM)
OC43 virus = assay: microbe, parasite or virus in culture; format: cell-based; conditions: Betacoronavirus 1, OC43, Huh-7, read-out: Antiviral OC43 EC50 (μM)
[5] = Severe acute respiratory syndrome coronavirus 2, HeLa-ACE2 cells, read-out: Antiviral CoV-2 EC50

Sequence of MERS Mpro (K9N7C7 3248-3553 limits assumed): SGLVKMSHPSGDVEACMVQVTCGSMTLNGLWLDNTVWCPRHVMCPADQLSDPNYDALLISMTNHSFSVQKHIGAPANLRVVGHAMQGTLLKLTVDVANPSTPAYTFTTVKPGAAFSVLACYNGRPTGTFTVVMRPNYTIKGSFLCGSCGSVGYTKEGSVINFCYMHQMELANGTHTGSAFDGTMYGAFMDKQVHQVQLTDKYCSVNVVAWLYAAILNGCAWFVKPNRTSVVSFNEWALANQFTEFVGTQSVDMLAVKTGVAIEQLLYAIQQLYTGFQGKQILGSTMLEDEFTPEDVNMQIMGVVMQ
Sequence of 229E Mpro (P0C6X1 2966-3267 limits assumed): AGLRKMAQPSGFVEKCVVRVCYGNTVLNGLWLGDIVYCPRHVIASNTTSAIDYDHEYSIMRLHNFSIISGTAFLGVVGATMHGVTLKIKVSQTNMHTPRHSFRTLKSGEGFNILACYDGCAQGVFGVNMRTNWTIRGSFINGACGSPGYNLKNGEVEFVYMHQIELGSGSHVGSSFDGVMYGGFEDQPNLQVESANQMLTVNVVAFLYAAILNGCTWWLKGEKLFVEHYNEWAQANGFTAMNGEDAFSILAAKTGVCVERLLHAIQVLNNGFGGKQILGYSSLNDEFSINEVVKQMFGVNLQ
Sequence of OC43 Mpro (P0C6X6 3247-3549 limits assumed): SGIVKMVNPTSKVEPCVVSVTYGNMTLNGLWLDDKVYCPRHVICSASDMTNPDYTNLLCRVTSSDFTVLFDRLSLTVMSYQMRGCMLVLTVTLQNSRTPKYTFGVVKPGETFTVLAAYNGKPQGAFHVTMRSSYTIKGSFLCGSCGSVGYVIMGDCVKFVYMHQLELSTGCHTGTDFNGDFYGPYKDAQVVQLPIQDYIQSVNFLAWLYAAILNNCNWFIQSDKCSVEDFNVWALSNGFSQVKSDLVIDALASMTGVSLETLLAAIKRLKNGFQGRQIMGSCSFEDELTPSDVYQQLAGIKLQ

| SMILES | CLint scaled (in vitro [1]) [mL/min/kg] | Papp (in vitro [2]) [×10⁻⁶ cm/s] | EC50 (OC43 Mpro) [nM] | EC50 (SARS-CoV-2 Mpro) [nM] | CLint scaled (in vitro [3]) [mL/min/kg] | EC50 (MERS Mpro) [nM] | EC50 (229E Mpro) [nM] | EC50 (SARS-CoV-1 Mpro) [nM] | EC50 [4, 5] [µM] | EC50 ([4]; Severe acute respiratory syndrome coronavirus 2, HeLa-ACE2, read-out: Antiviral CoV-2 EC50 (μM)) [µM] | EC50 (229E virus) [µM] | EC50 (OC43 virus) [µM] |
| --- | --- | --- | --- | --- | --- | --- | --- | --- | --- | --- | --- | --- |
| O=C(N[C@@H]1CCN(c2c(C(=O)N3CCN4CCOCC4C3)cc(Br)cc2C(F)(F)F)C1)c1cc(=O)[nH]c2c(F)cccc12 (stereo partly shown) [Compound 71] | 358 | 18.8 | 0.66 | 0.42 | 423 | 0.78 | 3.84 | 1.94 | – | – | – | – |
| Cc1cc(C(=O)N2CCOCC2)c(N2C[C@H](NC(=O)c3cc(=O)[nH]c4c(F)c(F)ccc34)CC2=O)c(C2CC2)c1 [Compound 75] | < 55 | 2.46 | 2.25 | 0.63 | < 33.3 | 1.72 | 6.11 | 0.72 | 0.0231 | – | – | – |
| O=C(N[C@@H]1CCN(c2c(C(=O)N3CC4CC(C3)O4)cc(Br)cc2C(F)(F)F)C1)c1cc(=O)[nH]c2c(F)cccc12 [Compound 65] | 258 | 16 | 1.29 | 0.42 | 93.3 | 1.54 | 2.76 | 1.86 | – | 0.0092 | – | – |
| O=C(N[C@@H]1CCN(c2c(OC(F)F)cc(Cl)cc2C(=O)N2CCOCC2)C1)c1cc(=O)[nH]c2c(F)cccc12 [Compound 43] | 312 | 12.7 | 3.17 | 0.46 | 100 | 1.41 | 15 | – | 0.0247 | – | – | – |
| O=C(N[C@@H]1CCN(c2c(C(=O)N3CCOCC3)cc(Br)cc2C(F)(F)F)C1)c1cc(=O)[nH]c2c(F)ccc(F)c12 [Compound 52] | 452 | 12.6 | 0.84 | 0.43 | 183 | 1.03 | 3.58 | – | 0.009 | – | – | – |
| Cc1cc(C(=O)N[C@@H]2CCN(c3c(C(=O)N4CCOCC4)cc(C#N)cc3C(F)(F)F)C2)c(F)c(=O)[nH]1 [Compound 10] | < 50 | 0.7 | 12 | 0.54 | < 30 | 1.5 | 7.63 | – | 0.589 | – | – | – |
| N#Cc1cc(C(=O)N2CCOCC2)c(N2CC[C@@H](NC(=O)c3c(F)c(=O)[nH]c4ccccc34)C2)c(C(F)(F)F)c1 [Compound 6] | 81.7 | 3.22 | 1.44 | 0.78 | < 35 | 2.51 | 2.32 | – | 0.0219 | – | – | – |
| O=C(N[C@@H]1CCN(c2c(C(=O)N3CCOCC3)cc(Cl)cc2C(F)(F)F)C1)c1c(F)c(=O)[nH]c2c(F)cccc12 [Compound 55] | 318 | 18.6 | 0.42 | 0.42 | 157 | 0.84 | 1.74 | 0.56 | 0.0046 | – | – | – |
| CN1CCN(C(=O)c2cc(Cl)cc(C(F)(F)F)c2N2CC[C@@H](NC(=O)c3cc(=O)[nH]c4c(F)cccc34)C2)CC1 [Compound 37] | 423 | 6.23 | 1 | 0.63 | 150 | 1.22 | 2.53 | 1.68 | 0.0288 | – | – | – |
| O=C(N[C@@H]1CCN(c2c(C(=O)N3CC4(COC4)C3)cc(Br)cc2C(F)(F)F)C1)c1cc(=O)[nH]c2c(F)cccc12 [Compound 73] | 327 | 11.7 | 1.13 | 0.53 | 117 | 1.69 | 5.79 | 3.84 | 0.0123 | – | – | – |
| CN1CCN(C(=O)c2cc(Br)cc(C(F)(F)F)c2N2CC[C@@H](NC(=O)c3cc(=O)[nH]c4c(F)cccc34)C2)CC1 [Compound 63] | 722 | 5.6 | 0.91 | 0.56 | 357 | 1.06 | 1.99 | 1.27 | 0.0127 | – | – | – |
| CO[C@H]1CN(c2c(C(=O)N3CCOCC3)cc(C#N)cc2C(F)(F)F)C[C@@H]1NC(=O)c1cc(=O)[nH]c2c(F)cccc12 [Compound 32] | < 70 | 7.29 | 1.17 | 0.45 | 48.3 | 1.06 | 1.78 | – | 0.0186 | – | – | – |
| Cc1cc(C(=O)N[C@@H]2CCN(c3c(C(=O)N4CCOCC4)cc(Br)cc3C(F)(F)F)C2)c(F)c(=O)[nH]1 [Compound 3, (R)—N-(1-(4-bromo-2-(morpholine-4-carbonyl)-6-(trifluoromethyl)phenyl)pyrrolidin-3-yl)-3-fluoro-6-methyl-2-oxo-1,2-dihydropyridine-4-carboxamide] | < 60 | 5.84 | 3.88 | 0.63 | < 36.7 | 1.23 | 12.9 | 0.97 | 0.0203 | – | – | – |
| NC(=O)c1cc(C(=O)N2CCOCC2)c(N2CC[C@@H](NC(=O)c3cc(=O)[nH]c4c(F)cccc34)C2)c(C(F)(F)F)c1 [Compound 35] | 46.7 | 0.1 | 16.5 | 0.53 | < 28.3 | 0.93 | 2.6 | 2.45 | – | – | – | – |
| N#Cc1cc(C(=O)N2CCOCC2)c(N2C[C@H](NC(=O)c3cc(=O)[nH]c4c(F)cc(F)cc34)CC2=O)c(C(F)(F)F)c1 [Compound 33] | < 56.7 | 1.12 | 171 | 0.92 | < 35 | 2.49 | 38.5 | – | 0.174 | – | – | – |
| Cc1cc(C(=O)N2CCOCC2)c(N2CC[C@@H](NC(=O)c3cc(C)[nH]c(=O)c3F)C2)c(C2CC2)c1 [Compound 60] | – | 2.95 | 1.22 | 0.48 | 66.7 | 1.4 | 5.14 | 0.74 | 0.18 | – | – | – |
| Cc1[nH]c(=O)cc(C(=O)N[C@@H]2CCN(c3c(C(=O)N4CCOCC4)cc(Br)cc3C(F)(F)F)C2)c1F [Compound 59] | < 68.3 | 8.24 | 6.09 | 1.11 | < 61.7 | 1.01 | 20.4 | – | 0.0956 | – | – | – |
| N#Cc1cc(C(=O)N2CCOCC2)c(N2CC[C@@H](NC(=O)c3cc(=O)[nH]c4c(F)cc(F)cc34)C2)c(C(F)(F)F)c1 [Compound 7] | < 58.3 | 6.77 | 4.95 | 0.43 | < 35 | 0.99 | 2.76 | – | 0.0256 | – | – | – |
| O=C(N[C@@H]1CCN(c2c(OC(F)(F)F)cc(Br)cc2C(=O)N2CCOCC2)C1)c1cc(=O)[nH]c2c(F)cccc12 [Compound 42] | 482 | 14.7 | 1.4 | 0.45 | 125 | 1.05 | 3.58 | – | 0.0082 | – | – | – |
| COCCN1CCN(C(=O)c2cc(Br)cc(C(F)(F)F)c2N2CC[C@@H](NC(=O)c3cc(=O)[nH]c4c(F)cccc34)C2)CC1 [Compound 67] | 1180 | 16.3 | 1.52 | 0.5 | 313 | 1.5 | 4.22 | 2.56 | – | – | – | – |
| COc1cc(F)cc2[nH]c(=O)cc(C(=O)N[C@@H]3CCN(c4c(C(=O)N5CCOCC5)cc(Br)cc4C(F)(F)F)C3)c12 [Compound 57] | 437 | 4.09 | 0.42 | 0.42 | 125 | 0.53 | 0.88 | – | – | – | 0.083 | 0.095 |
| C[C@@H]1C[C@@H](NC(=O)c2cc(=O)[nH]c3c(F)cccc23)CN1c1c(C(=O)N2CCOCC2)cc(C#N)cc1C(F)(F)F [Compound 30] | 303 | 13.3 | 0.58 | 0.42 | 61.7 | 1.04 | 1.25 | – | – | – | 0.011 | 0.029 |
| O=C(N[C@@H]1CCN(c2c(C(=O)N3CCOCC3)cc(Br)cc2C(F)F)C1)c1c(F)c(=O)[nH]c2c(F)cccc12 [Compound 54] | 257 | 13.1 | 0.42 | 0.43 | 140 | 1.12 | 4.72 | – | 0.005 | – | – | – |
| N#Cc1cc(C(=O)N2CCOCC2)c(N2CC[C@@H](NC(=O)c3c(F)c(=O)[nH]c4c(F)cccc34)C2)c(C(F)F)c1 [Compound 39] | < 41.7 | 4.71 | 1.05 | 0.42 | < 25 | 1.12 | 3.45 | 2.56 | 0.0189 | – | – | – |
